Data as given in ChEMBL document CHEMBL6092167, “Phosphorylation as an Effective Tool to Improve Stability and Reduce Toxicity of Antimicrobial Peptides” (J Med Chem, 2024).
In brackets after ≈: the same amount, converted by molar mass. Non-standard residues stand in square brackets, D forms with d. Residues, ends and D or L forms follow the SMILES beside them. pY = N[C@@H](Cc1ccc(OP(=O)(O)O)cc1)C(=O)O; pT = C[C@@H](OP(=O)(O)O)[C@H](N)C(=O)O; 2Nal = N[C@@H](Cc1ccc2ccccc2c1)C(=O)O

What was measured:
[1] = tested on: Pseudomonas aeruginosa; assay: Antibacterial activity against Pseudomonas aeruginosa ATCC 27853 incubated for 18 to 24 hrs by broth microdilution method; assay type: functional; details: time 18-24 hrs
[2] = tested on: Staphylococcus aureus; assay: Antibacterial activity against Staphylococcus aureus ATCC 25923 incubated for 18 to 24 hrs by broth microdilution method; assay type: functional; details: time 18-24 hrs
[3] = tested on: Bacillus subtilis; assay: Antibacterial activity against Bacillus subtilis ATCC 23857 incubated for 18 to 24 hrs by broth microdilution method; assay type: functional; details: time 18-24 hrs
[4] = tested on: Escherichia coli; assay: Antibacterial activity against Escherichia coli 780 incubated for 18 to 24 hrs by broth microdilution method; assay type: functional; details: time 18-24 hrs
[5] = Hemolytic activity in mouse erythrocyte incubated for 1 hr by microplate reader assay; assay type: toxicity, cell-based
[6] = tested on: Escherichia coli; assay: Antibacterial activity against Escherichia coli ATCC 25922 incubated for 18 to 24 hrs by broth microdilution method; assay type: functional; details: time 18-24 hrs
[7] = tested on: Staphylococcus aureus; assay: Antibacterial activity against Staphylococcus aureus 794 incubated for 18 to 24 hrs by broth microdilution method; assay type: functional; details: time 18-24 hrs
[8] = tested on: Escherichia coli; assay: Antibacterial activity against Escherichia coli 850 incubated for 18 to 24 hrs by broth microdilution method; assay type: functional; details: time 18-24 hrs
[9] = Cytotoxicity against HEK293T cells incubated for 1 hr by fluorescence based microplate reader assay; assay type: toxicity, cell-based, HEK-293T; details: human
[10] = tested on: Staphylococcus aureus; assay: Antibacterial activity against methicillin resistant Staphylococcus aureus 48 incubated for 18 to 24 hrs by broth microdilution method; assay type: functional; details: time 18-24 hrs
[11] = tested on: Staphylococcus aureus; assay: Antibacterial activity against methicillin resistant Staphylococcus aureus ATCC 33591 incubated for 18 to 24 hrs by broth microdilution method; assay type: functional; details: time 18-24 hrs
[12] = tested on: Acinetobacter baumannii; assay: Antibacterial activity against Acinetobacter baumannii ATCC 19606 incubated for 18 to 24 hrs by broth microdilution method; assay type: functional; details: time 18-24 hrs
[13] = tested on: Pseudomonas aeruginosa; assay: Antibacterial activity against Pseudomonas aeruginosa 119 incubated for 18 to 24 hrs by broth microdilution method; assay type: functional; details: time 18-24 hrs
[14] = tested on: Klebsiella pneumoniae; assay: Antibacterial activity against Klebsiella pneumoniae ATCC 700603 incubated for 18 to 24 hrs by broth microdilution method; assay type: functional; details: time 18-24 hrs

CC(C)C[C@H](NC(=O)[C@H](CC(C)C)NC(=O)[C@H](Cc1ccc(OP(=O)(O)O)cc1)NC(=O)[C@H](CCCCN)NC(=O)[C@H](CC(C)C)NC(=O)[C@H](CCCNC(=N)N)NC(=O)[C@H](CCCCN)NC(=O)[C@H](Cc1c[nH]c2ccccc12)NC(=O)[C@H](CC(C)C)NC(=O)CN)C(N)=O (H-GLWKRLK[pY]LL-NH2)
MIC [1]: 32 µM (≈ 43.8 µg/mL)
MIC [2]: 16 µM (≈ 21.9 µg/mL)
MIC [3]: 8 µM (≈ 10.9 µg/mL)
MIC [4]: 8 µM (≈ 10.9 µg/mL)
MHC [5]: 268.04 µM
MIC [6]: 8 µM (≈ 10.9 µg/mL)
MIC [7]: 8 µM (≈ 10.9 µg/mL)
MIC [8]: 16 µM (≈ 21.9 µg/mL)
CC50 at 1 h [9]: 148 µM
MIC [10]: 16 µM (≈ 21.9 µg/mL)
MIC [11]: 16 µM (≈ 21.9 µg/mL)
MIC [12]: 8 µM (≈ 10.9 µg/mL)
MIC [13]: 64 µM (≈ 87.6 µg/mL)
MIC [14]: 16 µM (≈ 21.9 µg/mL)

CC(C)C[C@H](NC(=O)[C@H](CC(C)C)NC(=O)[C@@H](NC(=O)[C@H](CCCCN)NC(=O)[C@H](CC(C)C)NC(=O)[C@H](CCCNC(=N)N)NC(=O)[C@H](CCCCN)NC(=O)[C@H](Cc1ccc2ccccc2c1)NC(=O)[C@H](CC(C)C)NC(=O)CN)[C@@H](C)O)C(N)=O (H-GL[2Nal]KRLKTLL-NH2)
MIC [1]: 8 µM (≈ 9.9 µg/mL)
MIC [2]: 8 µM (≈ 9.9 µg/mL)
MIC [3]: 8 µM (≈ 9.9 µg/mL)
MIC [4]: 8 µM (≈ 9.9 µg/mL)
MHC [5]: 154.3 µM
MIC [6]: 8 µM (≈ 9.9 µg/mL)
MIC [7]: 8 µM (≈ 9.9 µg/mL)
MIC [8]: 8 µM (≈ 9.9 µg/mL)
CC50 at 1 h [9]: 111 µM
MIC [10]: 8 µM (≈ 9.9 µg/mL)
MIC [11]: 8 µM (≈ 9.9 µg/mL)
MIC [12]: 8 µM (≈ 9.9 µg/mL)
MIC [13]: 8 µM (≈ 9.9 µg/mL)
MIC [14]: 8 µM (≈ 9.9 µg/mL)

CC(C)C[C@H](NC(=O)[C@H](CC(C)C)NC(=O)[C@H](Cc1ccc(O)cc1)NC(=O)[C@H](CCCCN)NC(=O)[C@H](CC(C)C)NC(=O)[C@H](CCCNC(=N)N)NC(=O)[C@H](CCCCN)NC(=O)[C@H](Cc1ccc2ccccc2c1)NC(=O)[C@H](CC(C)C)NC(=O)CN)C(N)=O (H-GL[2Nal]KRLKYLL-NH2)
MIC [1]: 8 µM (≈ 10.4 µg/mL)
MIC [2]: 8 µM (≈ 10.4 µg/mL)
MIC [3]: 4 µM (≈ 5.2 µg/mL)
MIC [4]: 8 µM (≈ 10.4 µg/mL)
MHC [5]: 78.09 µM
MIC [6]: 8 µM (≈ 10.4 µg/mL)
MIC [7]: 8 µM (≈ 10.4 µg/mL)
MIC [8]: 8 µM (≈ 10.4 µg/mL)
CC50 at 1 h [9]: 61.5 µM
MIC [10]: 8 µM (≈ 10.4 µg/mL)
MIC [11]: 8 µM (≈ 10.4 µg/mL)
MIC [12]: 8 µM (≈ 10.4 µg/mL)
MIC [13]: 8 µM (≈ 10.4 µg/mL)
MIC [14]: 8 µM (≈ 10.4 µg/mL)

CC(C)C[C@H](NC(=O)[C@H](CC(C)C)NC(=O)[C@@H](NC(=O)[C@H](CCCCN)NC(=O)[C@H](CC(C)C)NC(=O)[C@H](CCCNC(=N)N)NC(=O)[C@H](CCCCN)NC(=O)[C@H](Cc1ccc2ccccc2c1)NC(=O)[C@H](CC(C)C)NC(=O)CN)[C@@H](C)OP(=O)(O)O)C(N)=O (H-GL[2Nal]KRLK[pT]LL-NH2)
MIC [1]: 32 µM (≈ 42.2 µg/mL)
MIC [2]: 128 µM (≈ 169 µg/mL)
MIC [3]: 32 µM (≈ 42.2 µg/mL)
MIC [4]: 32 µM (≈ 42.2 µg/mL)
MHC [5]: > 256 µM
MIC [6]: 64 µM (≈ 84.3 µg/mL)
MIC [7]: 64 µM (≈ 84.3 µg/mL)
MIC [8]: 64 µM (≈ 84.3 µg/mL)
CC50 at 1 h [9]: 131 µM
MIC [10]: 128 µM (≈ 169 µg/mL)
MIC [11]: 128 µM (≈ 169 µg/mL)
MIC [12]: 64 µM (≈ 84.3 µg/mL)
MIC [13]: 64 µM (≈ 84.3 µg/mL)
MIC [14]: 128 µM (≈ 169 µg/mL)

CC(C)C[C@H](NC(=O)[C@H](CC(C)C)NC(=O)[C@H](Cc1ccc(OP(=O)(O)O)cc1)NC(=O)[C@H](CCCCN)NC(=O)[C@H](CC(C)C)NC(=O)[C@H](CCCNC(=N)N)NC(=O)[C@H](CCCCN)NC(=O)[C@H](Cc1ccc2ccccc2c1)NC(=O)[C@H](CC(C)C)NC(=O)CN)C(N)=O (H-GL[2Nal]KRLK[pY]LL-NH2)
MIC [1]: 16 µM (≈ 22.1 µg/mL)
MIC [2]: 8 µM (≈ 11 µg/mL)
MIC [3]: 8 µM (≈ 11 µg/mL)
MIC [4]: 16 µM (≈ 22.1 µg/mL)
MHC [5]: 164.57 µM
MIC [6]: 8 µM (≈ 11 µg/mL)
MIC [7]: 8 µM (≈ 11 µg/mL)
MIC [8]: 8 µM (≈ 11 µg/mL)
CC50 at 1 h [9]: 128 µM
MIC [10]: 8 µM (≈ 11 µg/mL)
MIC [11]: 8 µM (≈ 11 µg/mL)
MIC [12]: 8 µM (≈ 11 µg/mL)
MIC [13]: 32 µM (≈ 44.1 µg/mL)
MIC [14]: 8 µM (≈ 11 µg/mL)

O=C(O)c1cn(C2CC2)c2cc(N3CCNCC3)c(F)cc2c1=O [CIPROFLOXACIN]
MIC [1]: 4 µM (≈ 1.33 µg/mL)
MIC [2]: 16 µM (≈ 5.3 µg/mL)
MIC [3]: 2 µM (≈ 0.663 µg/mL)
MIC [6]: < 1 µM
MIC [12]: 16 µM (≈ 5.3 µg/mL)

C[C@@H](O)[C@H]1C(=O)N2C(C(=O)O)=C(S[C@@H]3CN[C@H](C(=O)N(C)C)C3)[C@H](C)[C@H]12 [MEROPENEM]
MIC [1]: 1 µM (≈ 0.383 µg/mL)
MIC [2]: < 1 µM
MIC [3]: < 1 µM
MIC [4]: < 1 µM
MIC [6]: < 1 µM
MIC [7]: < 1 µM
MIC [8]: < 1 µM
MIC [10]: 128 µM (≈ 49.1 µg/mL)
MIC [11]: 64 µM (≈ 24.5 µg/mL)
MIC [12]: 2 µM (≈ 0.767 µg/mL)
MIC [13]: 8 µM (≈ 3.07 µg/mL)
MIC [14]: 2 µM (≈ 0.767 µg/mL)

COc1cccc(OC)c1C(=O)N[C@@H]1C(=O)N2[C@@H]1SC(C)(C)[C@@H]2C(=O)O [METHICILLIN]
MIC [1]: > 128 µM
MIC [2]: 8 µM (≈ 3.04 µg/mL)
MIC [3]: < 1 µM
MIC [4]: > 128 µM
MIC [6]: > 128 µM
MIC [7]: > 128 µM
MIC [8]: > 128 µM
MIC [10]: > 128 µM
MIC [11]: > 128 µM
MIC [12]: > 128 µM
MIC [13]: > 128 µM
MIC [14]: > 128 µM
